In test [1] the target is T1, hER-α (Homo sapiens, UniProt P03372).
T1 construct: purchased MDS PharmaServices (contract assay); host or cells: insect Sf cells
T1 sequence (P03372 1-595): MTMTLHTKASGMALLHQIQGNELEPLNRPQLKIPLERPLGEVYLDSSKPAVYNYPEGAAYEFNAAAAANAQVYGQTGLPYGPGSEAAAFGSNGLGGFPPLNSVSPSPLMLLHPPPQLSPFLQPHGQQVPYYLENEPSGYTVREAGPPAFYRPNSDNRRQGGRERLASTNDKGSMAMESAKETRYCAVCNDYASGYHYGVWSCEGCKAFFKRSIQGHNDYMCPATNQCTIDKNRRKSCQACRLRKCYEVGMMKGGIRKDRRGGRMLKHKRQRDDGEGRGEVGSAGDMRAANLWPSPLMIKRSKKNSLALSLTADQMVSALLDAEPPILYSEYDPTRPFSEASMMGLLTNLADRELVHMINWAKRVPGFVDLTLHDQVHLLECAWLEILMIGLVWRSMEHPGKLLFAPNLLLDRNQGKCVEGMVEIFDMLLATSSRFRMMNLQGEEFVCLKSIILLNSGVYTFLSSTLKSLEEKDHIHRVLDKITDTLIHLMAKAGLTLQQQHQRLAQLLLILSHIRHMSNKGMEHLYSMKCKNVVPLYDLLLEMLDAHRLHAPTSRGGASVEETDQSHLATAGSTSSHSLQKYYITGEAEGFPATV
Description: In vitro binding affinity to the estrogen receptor-α, displacement assay with 0.5 nM 3H-estradiol. Particulars: hER-α recombinant, insect Sf cells, 0.5 nM 3H-estradiol radioligand, tested 0.03-10.0 nM; for IC50: read-out: ERα-aff IC50; for Ki: read-out: ERα-aff Ki. Here is the method: In Vitro Binding Affinty to the Estrogen Receptor-α (MDS PharmaServices)
Binding affinity was determined in a displacement assay using hER-α (recombinant, insect Sf cells) with 0.5 nM ^3H-estradiol as radioligand. The compounds were tested in concentrations from 0.03-10.0 nM. Results are given as IC50 and Ki.

Test [2] has as its system ICR derived immature female mice. Kind of test: In vivo estrogenic antagonism, estradiol-benzoate challenge, uterine wet weight. The settings on record: 10 mg/kg s.c., three consecutive days, estradiol-benzoate 3 μg/kg s.c. challenge, uterus wet weight 24 h after final dose. More on the design: unit: %. Here is the method: In Vivo Estrogenic Antagonism (MDS PharmaServices)
Compounds were administered s.c. (10 mg/kg) for three consecutive days to a group of 5 ICR derived immature female mice weighing approx. 13 g and challenged with estradiol-benzoate (3 μg/kg s.c.) immediately after each daily dosing. The animals were sacrificed 24 h after the final dose and wet weight of the uterus was measured. A 50% or greater reduction in the estradiol-induced increase in uterine weight indicates possible estrogen antagonist activity.

The test system is the same in test [3]. Description: In vivo estrogenic agonism, uterine wet weight. Particulars: 10 mg/kg s.c., three consecutive days, uterus wet weight 24 h after final dose. Here is the method:
In Vivo Estrogenic Agonism (MDS PharmaServices)
Compounds were administered s.c. (10 mg/kg) for three consecutive days to a group of 5 ICR derived immature female mice weighing approx. 13 g. The animals were sacrificed 24 h after the final dose and wet weight of the uterus was measured. A 50% or greater increase in the uterine weight relative to the vehicle control group indicates possible estrogen agonist activity.

SMILES strings stand for the structures.

The IC50 is the concentration needed to halve the response being measured. As usually defined, the Ki is the dissociation constant of the complex between target and ligand, obtained from inhibition or displacement. `C[C@]12CCC3c4ccc(O)cc4C(=O)[C@@H](CCCCCCCCC[S+]([O-])CCCC(F)(F)C(F)(F)F)C3C1C[C@@H](O)C21CC1` (stereo partly drawn) [Ex 10, 17-(1,2-Ethylene)-3,16α-dihydroxy-6-keto-7α-[9-[(4,4,5,5,5-pentafluoro-n-pentyl)sulfinyl]nonyl]-estra-1,3,5(10)-triene]: in test [1], the IC50 was 4.75 nM and the Ki stood at 1.36 nM.
For `CO[C@H]1c2cc(O)ccc2C2CC[C@@]3(C)C(C[C@@H](O)C34CC4)C2[C@@H]1CCCCCCCCC[S+]([O-])CCCC(F)(F)C(F)(F)F` (some centres unmarked) [Ex 8], in that order: 10.2 nM and 2.91 nM.
Regarding `CO[C@@H]1c2cc(O)ccc2C2CC[C@@]3(C)C(C[C@@H](O)C34CC4)C2[C@@H]1CCCCCCCCC[S+]([O-])CCCC(F)(F)C(F)(F)F` (stereo partly drawn) [Ex 14, 17-(1,2-Ethylene)-3,16α-dihydroxy-6α-methoxy-7α-[9-[(4,4,5,5,5-pentafluoro-n-pentyl)sulfinyl]nonyl]-estra-1,3,5(10)-triene], in test [1], the IC50 is > 10 nM and the Ki is > 10 nM.
For `C[C@]12CCC3c4ccc(O)cc4[C@@H](O)[C@@H](CCCCCCCCC[S+]([O-])CCCC(F)(F)C(F)(F)F)C3C1C[C@@H](O)C21CC1` (stereo partly drawn) [Ex 12, 17-(1,2-Ethylene)-3,6α,16α-trihydroxy-7α-[9-[(4,4,5,5,5-pentafluoro-n-pentyl)sulfinyl]nonyl]-1,3,5(10)-triene], in test [1], the IC50 was found to be 1.59 nM and the Ki is 0.45 nM.
Consider `CCCCN(C)C(=O)CCCCCCCCCC[C@@H]1Cc2cc(O)ccc2[C@H]2CC[C@]3(C)[C@@H](O)CC[C@H]3[C@H]12` [ICI 164, 384, 11-(3,17β-Dihydroxy-estra-1,3,5(10)-triene-7α-yl)-undecanoic acid n-butyl-methyl-amide, reference compound], for which the “in vivo antagonism (reduction in the estradiol-induced increase in uterine weight)” value in test [2] is listed as 66.
For the compound `C[C@]12CCC3c4ccc(O)cc4[C@H](F)[C@@H](CCCCCCCCC[S+]([O-])CCCC(F)(F)C(F)(F)F)C3C1C[C@@H](O)C21CC1` (stereo partly drawn) [Ex 16, 17-(1,2-Ethylene)-6β-fluoro-3,16α-dihydroxy-7α-[9-[(4,4,5,5,5-pentafluoro-n-pentyl)sulfinyl]nonyl]-estra-1,3,5(10)-triene], in test [1], the half-maximal inhibitory concentration (IC50) was determined as 1.04 nM and the Ki is 0.3 nM.
The matching figures for `C[C@]12CCC3c4ccc(O)cc4C[C@@H](CCCCCCCCC[S+]([O-])CCCC(F)(F)C(F)(F)F)C3C1C[C@@H](O)C21CC1` (stereo partly drawn) [Ex 18, 17-(1,2-Ethylene)-3,16α-dihydroxy-7α-[9-[(4,4,5,5,5-pentafluoro-n-pentyl)sulfinyl]nonyl]-estra-1,3,5(10)-triene]: 0.92 nM and 0.26 nM.
Consider `CC12CCC3c4ccc(O)cc4CC(CCCCCCCCC[S+]([O-])CCCC(F)(F)C(F)(F)F)C3C1CCC2O` (centres unmarked) [ICI 182, 780, reference compound], for which the “in vivo antagonism (reduction in the estradiol-induced increase in uterine weight)” value in test [2] came out at 66.
In the case of `C=C1[C@H](O)CC2C3C(CC[C@]12C)c1ccc(O)cc1C[C@H]3CCCCCCCCC[S+]([O-])CCCC(F)(F)C(F)(F)F` (some centres unmarked) [Ex 5], in test [1], the IC50 came out at 1.19 nM and the Ki stood at 0.34 nM. Further, the “in vivo antagonism (reduction in the estradiol-induced increase in uterine weight)” value in test [2] is given as 55. For the same compound, in test [3], the “In vivo agonism (increase in uterine weight relative to vehicle control)” value was found to be 8%.
For `C=C1[C@H](O)C[C@H]2[C@@H]3[C@H](CCCCCCCCCCC(=O)N(C)CCCC)Cc4cc(O)ccc4[C@H]3CC[C@]12C` [Ex 1, 11-(3,16α-Dihydroxy-17-methylene-estra-1,3,5(10)-triene-7α-yl)-undecanoic acid n-butyl-methyl-amide], in that order: 3.5 nM, 1 nM, 61 and 1%.
For `CCCCN(C)C(=O)CCCCCCCCCC[C@@H]1Cc2cc(O)ccc2C2CC[C@@]3(C)C(C[C@@H](O)C34CC4)C21` (stereo partly drawn) [Ex 4, 11-(17-(1,2-Ethylene)-3,16α-dihydroxy-estra-1,3,5(10)-triene-7α-yl)-undecanoic acid n-butyl-methyl-amide], in that order: 2.48 nM, 0.71 nM, 58 and 4%.

The values above are taken from patent publication US20070142345A1, “Steroids for cancer treatment” (priority 2004, published 2007).
